For test [1], the system named is Alzheimer's disease mouse model subjected to intraventricular injection of Aβ. Nature of the test: Novel object recognition test, oral administration, Alzheimer's disease mouse model subjected to intraventricular injection of Aβ25-35. Conditions: day 5 after Aβ25-35, ICR mice, FIG. 2. The test is classed as in vivo. Here is the method:
(§1) An Alzheimer's disease mouse model was produced by injecting Aβ25-35 (the aggregation of which had been accelerated by 4 days of incubation at 37° C.) to mouse cerebral ventricle, following which it was used for the experimental system. ICR mice (body weight of 20-22 g (7 weeks old), purchased from Japan SLC Inc. (Shizuoka, Japan)) were divided into 4 groups (n=15). A physiological saline solution that is a solvent for Leu-Ile, Leu-Ile (1.5 μmol/Kg), or Leu-Ile (15 μmol/Kg) was administered to Alzheimer's disease mouse model groups. Then the groups were used for the experiment.
Moreover, an Leu-Ile 7.5 μmol/Kg administrated group and an Leu-Ile 75 μmol/Kg administrated group were subjected to oral administration of Leu-Ile (7.5 μmol/Kg) and Leu-Ile (75 μmol/Kg), respectively, immediately after administration of Aβ25-35. A novel object recognition test (Ennaceur et al., Behav Brain Res 80 9-25, 1996) was conducted for all groups 3 to 5 days after intraventricular administration of Aβ25-35 or a physiological saline solution. The test results on day 5 after administration of Aβ25-35 or a physiological saline solution were compared with the other test results on […] after administration (FIG. 2).

The test system is the same in test [2]. Nature of the test: Novel object recognition test, intraperitoneal administration, Alzheimer's disease mouse model subjected to intraventricular injection of Aβ25-35. The test is classed as in vivo. Conditions: day 5 after Aβ25-35, ICR mice, FIG. 3. How it is done:
as §1, with “cerebral ventricle and then” for “cerebral ventricle, following which it was”, “20-22 g,” for “20-22 g (7 weeks old),”, “into 5” for “into 4”, “solution was administered instead of Aβ25-35 to the cerebral ventricle of a control group. A physiological saline solution;” for “solution”
The Alzheimer's disease model control group, the Leu-Ile […] administrated group, the Leu-Ile 15 μmol/Kg administrated group, and an Leu-Ile 75 μmol/Kg administrated group were separately subjected to the experiment.
Specifically, the Leu-Ile 7.5 μmol/Kg administrated group, the Leu-Ile 15 μmol/Kg administrated group, and the Leu-Ile 75 μmol/Kg administrated group were subjected to intraperitoneal administration of Leu-Ile (7.5 μmol/Kg), Leu-Ile (15 μmol/Kg), and Leu-Ile (75 μmol/Kg), respectively, immediately after administration of Aβ25-35.
(§2) A novel object recognition test was conducted for each of the above groups 3 to 5 days after intraventricular administration of Aβ25-35 or a physiological saline solution. The test results on day 5 after administration of Aβ25-35 or a physiological saline solution were compared with the other test results on […] after administration (FIG. 3). Furthermore, Leu-Ile (15 μmol/Kg) was intraperitoneally administered to untreated mice and then the mice were subjected to a novel object recognition test similar to that conducted for the above test groups.

The subject of test [3] is untreated mice. Nature of the test: Novel object recognition test in untreated mice. In kind it is in vivo, mouse. The following applies: Leu-Ile 15 μmol/Kg intraperitoneal; untreated mice (no Aβ25-35). How it is done:
as §2

Take Leu-Ile: the “recognition indices (novel object recognition test)” value is on record as “decreased recognition indices were not confirmed” in test [1] (Leu-Ile 7.5 μmol/Kg oral); “decreased recognition indices were not confirmed” in test [1] (Leu-Ile 75 μmol/Kg oral); “decreased recognition indices were not observed” in test [2] (Leu-Ile 1.5 μmol/Kg intraperitoneal); “decreased recognition indices were not observed” in test [2] (Leu-Ile 15 μmol/Kg intraperitoneal); “decreased recognition indices were not observed” in test [2] (Leu-Ile 75 μmol/Kg intraperitoneal). Besides, the “effects of improving memory (novel object recognition test)” value in test [3] is “effects of improving memory were not observed”.

The values are drawn from patent US20100087383A1, “INT[…] INHIBITOR AND USE THEREOF” (National University Corporation Nagoya University, priority 2006, published 2010).
